According to ChEMBL document CHEMBL5244273, “Tuberculosis: An Overview of the Immunogenic Response, Disease Progression, and Medicinal Chemistry Efforts in the Last Decade toward the Development of Potential Drugs for Extensively Drug-Resistant Tuberculosis Strains” (J Med Chem, 2021):
In brackets after ≈: the same amount, converted by molar mass.

Experiments:
[1] = tested on: Mycobacterium tuberculosis; test: Antimycobacterial activity against non replicating Mycobacterium tuberculosis by broth dilution method; format: functional
J774 = test: Cytotoxicity against mouse J774 cells incubated for 24 hrs by MTT assay; format: toxicity, cell-based; conditions: j774, 24 h
[2] = tested on: Mycobacterium tuberculosis; test: Antimycobacterial activity against Mycobacterium tuberculosis H37Rv ATCC 27294 by broth dilution method; format: functional
[3] = tested on: Mycobacterium tuberculosis; test: Antimycobacterial activity against Mycobacterium tuberculosis H37Rv incubated for 4 weeks; format: functional; conditions: 672 h
[4] = tested on: Mycobacterium tuberculosis; test: Antimycobacterial activity against Mycobacterium tuberculosis H37Rv incubated for 5 weeks; format: functional; conditions: 840 h
[5] = tested on: Mycobacterium tuberculosis; test: Antimycobacterial activity against Mycobacterium tuberculosis H37Rv incubated for 3 weeks; format: functional; conditions: 504 h
[6] = tested on: Mycobacterium tuberculosis; test: Antimycobacterial activity against Mycobacterium tuberculosis H37Rv incubated for 2 weeks; format: functional; conditions: 336 h
[7] = Selectivity index, ratio of GI50 for cytotoxicity against human MCF7 cells to MIC for antitubercular activity against active stage of Mycobacterium tuberculosis H37Ra; format: toxicity, cell-based; conditions: read-out: Selectivity Index
MCF7 = test: Cytotoxicity against human MCF7 cells assessed as cell growth inhibition; format: functional
[8] = Selectivity index, ratio of GI50 for cytotoxicity against human HeLa cells to MIC for antitubercular activity against active stage of Mycobacterium tuberculosis H37Ra; format: toxicity, cell-based; conditions: read-out: Selectivity Index
[9] = Cytotoxicity against HUVEC cells assessed as cell growth inhibition; format: toxicity, cell-based; conditions: human
[10] = Selectivity index, ratio of GI50 for cytotoxicity against human MCF7 cells to MIC for antitubercular activity against dormant stage of Mycobacterium tuberculosis H37Ra; format: toxicity, cell-based; conditions: read-out: Selectivity Index
HeLa = test: Cytotoxicity against human HeLa cells assessed as cell growth inhibition; format: functional
[11] = Selectivity index, ratio of GI50 for cytotoxicity against HUVEC cells to MIC for antitubercular activity against active stage of Mycobacterium tuberculosis H37Ra; format: toxicity, cell-based; conditions: human, read-out: Selectivity Index
[12] = Selectivity index, ratio of GI50 for cytotoxicity against human HeLa cells to MIC for antitubercular activity against dormant stage of Mycobacterium tuberculosis H37Ra; format: toxicity, cell-based; conditions: read-out: Selectivity Index
[13] = tested on: Mycobacterium tuberculosis; test: Antitubercular activity against active stage of Mycobacterium tuberculosis H37Ra; format: functional
[14] = tested on: Mycobacterium tuberculosis; test: Antitubercular activity against dormant stage of Mycobacterium tuberculosis H37Ra; format: functional
[15] = Selectivity index, ratio of GI50 for cytotoxicity against HUVEC cells to MIC for antitubercular activity against dormant stage of Mycobacterium tuberculosis H37Ra; format: toxicity, cell-based; conditions: human, read-out: Selectivity Index
[16] = tested on: Mycobacterium tuberculosis; test: Antimycobacterial activity against Mycobacterium tuberculosis H37Rv; format: functional
[17] = tested on: Mycobacterium tuberculosis; test: Antitubercular activity against Mycobacterium tuberculosis H37Rv assessed as inhibition of bacterial growth by alamar blue assay; format: functional
[18] = tested on: Mycobacterium tuberculosis; test: Antimycobacterial activity against Mycobacterium tuberculosis H37Rv assessed as inhibition of bacterial growth incubated for 5 days by alamar blue assay; format: functional; conditions: 120 h, time 5 day

| SMILES | MIC [1] [µg/mL] | Activity (J774) [µg/mL] | MIC [2] [µg/mL] | MIC [3] [µg/mL] | MIC [4] [µg/mL] | MIC [5] [µg/mL] | MIC [6] [µg/mL] | also measured |
| --- | --- | --- | --- | --- | --- | --- | --- | --- |
| C[C@]1(Cn2cc(COc3ccccc3F)nn2)Cn2cc([N+](=O)[O-])nc2O1 | 0.5 (≈ 1.34 µM) | > 40 | 0.25 (≈ 0.668 µM) | – | – | – | – | – |
| C[C@]1(Cn2cc(COc3ccc(Br)cc3)nn2)Cn2cc([N+](=O)[O-])nc2O1 | 0.25 (≈ 0.574 µM) | > 40 | 0.12 (≈ 0.276 µM) | – | – | – | – | – |
| C[C@]1(Cn2cc(COc3cccc(Cl)c3)nn2)Cn2cc([N+](=O)[O-])nc2O1 | 1 (≈ 2.56 µM) | > 40 | 0.5 (≈ 1.28 µM) | – | – | – | – | – |
| C[C@]1(Cn2cc(-c3ccc(Oc4ccccc4)cc3)nn2)Cn2cc([N+](=O)[O-])nc2O1 | 2 (≈ 4.78 µM) | > 40 | 2 (≈ 4.78 µM) | – | – | – | – | – |
| CC(C)c1ccc(OCc2cn(C[C@@]3(C)Cn4cc([N+](=O)[O-])nc4O3)nn2)cc1 | 1 (≈ 2.51 µM) | > 40 | 0.5 (≈ 1.25 µM) | – | – | – | – | – |
| CC(C)c1ccc(-c2cc3c(cc2F)c(=O)c(C(=O)O)cn3C(C)(C)C)cc1 | – | – | – | 4 (≈ 10.5 µM) | 4 (≈ 10.5 µM) | 4 (≈ 10.5 µM) | 2 (≈ 5.24 µM) | – |
| C[C@]1(Cn2cc(COc3ccc(OC(F)(F)F)cc3)nn2)Cn2cc([N+](=O)[O-])nc2O1 | 4 (≈ 9.08 µM) | > 40 | 2 (≈ 4.54 µM) | – | – | – | – | – |
| C[C@]1(Cn2cc(COc3ccc(C(F)(F)F)cc3)nn2)Cn2cc([N+](=O)[O-])nc2O1 | 2 (≈ 4.71 µM) | > 40 | 1 (≈ 2.36 µM) | – | – | – | – | – |
| CCCCCc1cn(C[C@@]2(C)Cn3cc([N+](=O)[O-])nc3O2)nn1 | 4 (≈ 12.5 µM) | > 40 | 2 (≈ 6.24 µM) | – | – | – | – | – |
| COC(=O)c1sccc1NC(=O)[C@@H]1CCCN1 | – | – | – | – | – | – | – | selectivity ratio [7]: 10.3; GI50 (MCF7): 163 µg/mL (≈ 641 µM); selectivity ratio [8]: 5.7; GI50 [9]: 91.3 µg/mL (≈ 359 µM); selectivity ratio [10]: 24.2; GI50 (HeLa): 90.4 µg/mL (≈ 355 µM); selectivity ratio [11]: 5.75; selectivity ratio [12]: 13.4; MIC [13]: 15.9 µg/mL (≈ 62.4 µM); MIC [14]: 6.74 µg/mL (≈ 26.5 µM); selectivity ratio [15]: 13.6 |
| CC(C)(C)n1cc(C(=O)O)c(=O)c2cc(F)c(-c3ccc(-c4ccccc4)cc3)cc21 | – | – | – | 4 (≈ 9.63 µM) | 4 (≈ 9.63 µM) | 4 (≈ 9.63 µM) | 4 (≈ 9.63 µM) | – |
| COC(=O)c1ccsc1NC(=O)[C@H]1CCCN1 | – | – | – | – | – | – | – | selectivity ratio [7]: 16.5; GI50 (MCF7): 179 µg/mL (≈ 704 µM); selectivity ratio [8]: 8.43; GI50 [9]: 95.8 µg/mL (≈ 377 µM); selectivity ratio [10]: 20.4; GI50 (HeLa): 91.4 µg/mL (≈ 359 µM); selectivity ratio [11]: 8.84; selectivity ratio [12]: 10.4; MIC [13]: 10.8 µg/mL (≈ 42.6 µM); MIC [14]: 8.78 µg/mL (≈ 34.5 µM); selectivity ratio [15]: 10.9 |
| Cc1ccccc1-c1cc2c(cc1F)c(=O)c(C(=O)O)cn2C(C)(C)C | – | – | – | 8 (≈ 22.6 µM) | 16 (≈ 45.3 µM) | 8 (≈ 22.6 µM) | 8 (≈ 22.6 µM) | – |
| COC(=O)c1ccsc1NC(=O)[C@@H]1CCCN1 | – | – | – | – | – | – | – | selectivity ratio [7]: > 20.9; GI50 (MCF7): > 250 µg/mL; selectivity ratio [8]: > 20.9; GI50 [9]: > 250 µg/mL; selectivity ratio [10]: > 74.6; GI50 (HeLa): > 250 µg/mL; selectivity ratio [11]: > 20.9; selectivity ratio [12]: > 74.6; MIC [13]: 12 µg/mL (≈ 47.1 µM); MIC [14]: 3.35 µg/mL (≈ 13.2 µM); selectivity ratio [15]: > 74.6 |
| Cc1ccc(-c2cc3c(cc2F)c(=O)c(C(=O)O)cn3C(C)(C)C)cc1 | – | – | – | 1 (≈ 2.83 µM) | 1 (≈ 2.83 µM) | 1 (≈ 2.83 µM) | 1 (≈ 2.83 µM) | – |
| CC(C)(C)OC(=O)Nc1ccc(-c2cc3c(cc2F)c(=O)c(C(=O)O)cn3C(C)(C)C)cc1 | – | – | – | 4 (≈ 8.8 µM) | 4 (≈ 8.8 µM) | 4 (≈ 8.8 µM) | 4 (≈ 8.8 µM) | – |
| C[C@]1(Cn2cc(COc3ccccn3)nn2)Cn2cc([N+](=O)[O-])nc2O1 | 2 (≈ 5.6 µM) | > 40 | 1 (≈ 2.8 µM) | – | – | – | – | – |
| COc1cccc(-c2cc3c(cc2F)c(=O)c(C(=O)O)cn3C(C)(C)C)c1 | – | – | – | 1 (≈ 2.71 µM) | 1 (≈ 2.71 µM) | 1 (≈ 2.71 µM) | 1 (≈ 2.71 µM) | – |
| CCC(C)(C)n1cc(C(=O)O)c(=O)c2cc(F)c(-c3ccccc3)cc21 | – | – | – | 16 (≈ 45.3 µM) | 16 (≈ 45.3 µM) | 16 (≈ 45.3 µM) | 8 (≈ 22.6 µM) | – |
| COc1ccc(-c2cc3c(cc2F)c(=O)c(C(=O)O)cn3C2CC2)cn1 | – | – | – | 0.5 (≈ 1.41 µM) | 0.5 (≈ 1.41 µM) | 0.5 (≈ 1.41 µM) | 0.5 (≈ 1.41 µM) | – |
| O=C(O)c1cn(C2CC2)c2cc(N3CCNCC3)c(F)cc2c1=O [CIPROFLOXACIN] | – | – | – | 0.25 (≈ 0.754 µM) | 0.25 (≈ 0.754 µM) | 0.25 (≈ 0.754 µM) | 0.25 (≈ 0.754 µM) | MIC [16]: 3.12 µg/mL (≈ 9.42 µM); MIC [17]: 3.12 µg/mL (≈ 9.43 µM); MIC [18]: 3.12 µg/mL (≈ 9.42 µM) |
| CC(=O)O[C@H]1C(=O)[C@@]2(C)[C@H]([C@H](OC(=O)c3ccccc3)[C@]3(O)C[C@H](OC(=O)[C@H](O)[C@@H](NC(=O)c4ccccc4)c4ccccc4)C(C)=C1C3(C)C)[C@]1(OC(C)=O)CO[C@@H]1C[C@@H]2O [PACLITAXEL] | – | – | – | – | – | – | – | GI50 (MCF7): 0.0021 µg/mL (≈ 0.00246 µM); GI50 [9]: > 10 µg/mL; GI50 (HeLa): 0.0048 µg/mL (≈ 0.00562 µM) |
